Data: US20230115176A1 (Ra Pharmaceuticals, Inc., priority 2019, published 2023)
Values after ≈ are worked out from the molar mass of the structure shown. Like-named read-outs stand apart in the source and are kept apart here.

What was measured:
purified human C5 = purified human C5 (Homo sapiens, UniProt P01031); experiment: Red blood cell (RBC) hemolysis assay, optical, absorbance 412 nm (Example 10, Table 19); assay type: cell-based; details: antibody-sensitized sheep erythrocytes, […] human C5 depleted sera
Human C5 [1] = target: T1, Human C5 (Homo sapiens, UniProt P01031); experiment: Surface plasmon resonance (SPR), immobilized human C5 (Example 9, Table 18); assay type: binding
T1 construct: purchased Complement Technology
Excerpt: Morrison and Boyd in “Organic Chemistry”, 6th edition, Prentice Hall (1992)] and validated for proper structure by mass spectrometry.

Human C5 [2] = target: T1, Human C5; experiment: Red blood cell (RBC) hemolysis assay, luminescent (Example 28, Table 32); assay type: cell-based; details: sheep EA cells, 1.5% C5-depleted human serum, 0.5 nM human C5, 1 hour at 37° C., luminescence (Table 32)
[3] = Kinetic solubility in PBS pH 7.4, HPLC-UV (Example 21, Table 27); assay type: physicochemical; details: phosphate buffered saline, aqueous buffer, kinetic from dmso stock, 0.5 M PBS, shaken minimum 24 h at approximately 25° C., HPLC-UV 270 nm
Description: Compounds were analyzed for kinetic solubility values using a standard kinetic solubility assay format. First, test compounds were dissolved in DMSO (Aldrich Chemical Co., Milwaukee, Wis., USA) at a concentration of 0.010 mol/L and used to prepare standard calibrators in DMSO solution. 500.0 μM, 250.0 μM, 125.0 μM, 62.5 μM, 31.2 μM, and 15.6 μM standards were prepared in a Greiner UV-Star clear V-bottom 96-well plate (Greiner-Bio One, Germany) for generating a standard curve. Using Alfa Aesar's Sodium phosphate, 0.2 M buffer solution, pH 7.4 (Alfa Aesar, Haverhill, Mass., USA), aqueous phosphate buffered saline (PBS) was prepared by diluting with Milli-Q water for a final concentration of 0.05 M. The pH of the solution was adjusted to 7.4±0.1 using 0.1 M hydrochloric acid (Fisher Scientific Waltham, Mass., USA) or 0.1 M aqueous sodium hydroxide (Fisher Scientific Waltham, Mass., USA).
10 μL of 0.010 mol/L DMSO test compound stock solutions were pipetted to separate 1.5 mL centrifuge tubes in triplicate. To these tubes, 190 μl of 0.05 M PBS was added. Each tube was gently vortexed for 5 sec. The tubes were shaken for a minimum of 24 h at approximately 25° C. After shaking, the solutions were transferred to 0.5 mL centrifuge filter tubes (MilliporeSigma, Burlington, Mass., USA) and centrifuged at 10,000 rpm for 5 min. After centrifugation, supernatants were collected and used for compound concentration analysis.
Compound concentrations in each solution were determined using high pressure liquid chromatography (HPLC) with ultraviolet (UV) detection and comparison with external standards. For HPLC, a Waters Acquity CSH Phenyl-Hexyl column (2.1 mm×50 mm, 1.7 μm) was used together with a generic gradient method on a Waters H-class system equipped with a diode array detector: Solvent A=0.1% formic acid in water, Solvent B=0.1% formic acid in acetonitrile (MilliporeSigma, Burlington, Mass., USA), flow=0.65 mL/min, (t=0 min: 95% A-5% B, t=4.75 min: 0% A-100% B, t=4.85 min: 0% A-100% B, t=4.86 min: 95% A-5% B, t=5 min: 95% A-5% B). UV quantifications were performed at 270 nm. Solution concentrations were calculated using Microsoft Excel.

[4] = 0.5 nM purified human C5, absorbance 412 nm, read-out: RBC Hemolysis IC50
[5] = immobilized human C5, equilibrium dissociation constant, read-out: SPR C5 EQ KD
[6] = SPR, human C5 immobilized, read-out: equilibrium dissociation constant for interaction with C5
[7] = 0.5 nM human C5, read-out: IC50

purified human C5, sequence (P01031 19-1676): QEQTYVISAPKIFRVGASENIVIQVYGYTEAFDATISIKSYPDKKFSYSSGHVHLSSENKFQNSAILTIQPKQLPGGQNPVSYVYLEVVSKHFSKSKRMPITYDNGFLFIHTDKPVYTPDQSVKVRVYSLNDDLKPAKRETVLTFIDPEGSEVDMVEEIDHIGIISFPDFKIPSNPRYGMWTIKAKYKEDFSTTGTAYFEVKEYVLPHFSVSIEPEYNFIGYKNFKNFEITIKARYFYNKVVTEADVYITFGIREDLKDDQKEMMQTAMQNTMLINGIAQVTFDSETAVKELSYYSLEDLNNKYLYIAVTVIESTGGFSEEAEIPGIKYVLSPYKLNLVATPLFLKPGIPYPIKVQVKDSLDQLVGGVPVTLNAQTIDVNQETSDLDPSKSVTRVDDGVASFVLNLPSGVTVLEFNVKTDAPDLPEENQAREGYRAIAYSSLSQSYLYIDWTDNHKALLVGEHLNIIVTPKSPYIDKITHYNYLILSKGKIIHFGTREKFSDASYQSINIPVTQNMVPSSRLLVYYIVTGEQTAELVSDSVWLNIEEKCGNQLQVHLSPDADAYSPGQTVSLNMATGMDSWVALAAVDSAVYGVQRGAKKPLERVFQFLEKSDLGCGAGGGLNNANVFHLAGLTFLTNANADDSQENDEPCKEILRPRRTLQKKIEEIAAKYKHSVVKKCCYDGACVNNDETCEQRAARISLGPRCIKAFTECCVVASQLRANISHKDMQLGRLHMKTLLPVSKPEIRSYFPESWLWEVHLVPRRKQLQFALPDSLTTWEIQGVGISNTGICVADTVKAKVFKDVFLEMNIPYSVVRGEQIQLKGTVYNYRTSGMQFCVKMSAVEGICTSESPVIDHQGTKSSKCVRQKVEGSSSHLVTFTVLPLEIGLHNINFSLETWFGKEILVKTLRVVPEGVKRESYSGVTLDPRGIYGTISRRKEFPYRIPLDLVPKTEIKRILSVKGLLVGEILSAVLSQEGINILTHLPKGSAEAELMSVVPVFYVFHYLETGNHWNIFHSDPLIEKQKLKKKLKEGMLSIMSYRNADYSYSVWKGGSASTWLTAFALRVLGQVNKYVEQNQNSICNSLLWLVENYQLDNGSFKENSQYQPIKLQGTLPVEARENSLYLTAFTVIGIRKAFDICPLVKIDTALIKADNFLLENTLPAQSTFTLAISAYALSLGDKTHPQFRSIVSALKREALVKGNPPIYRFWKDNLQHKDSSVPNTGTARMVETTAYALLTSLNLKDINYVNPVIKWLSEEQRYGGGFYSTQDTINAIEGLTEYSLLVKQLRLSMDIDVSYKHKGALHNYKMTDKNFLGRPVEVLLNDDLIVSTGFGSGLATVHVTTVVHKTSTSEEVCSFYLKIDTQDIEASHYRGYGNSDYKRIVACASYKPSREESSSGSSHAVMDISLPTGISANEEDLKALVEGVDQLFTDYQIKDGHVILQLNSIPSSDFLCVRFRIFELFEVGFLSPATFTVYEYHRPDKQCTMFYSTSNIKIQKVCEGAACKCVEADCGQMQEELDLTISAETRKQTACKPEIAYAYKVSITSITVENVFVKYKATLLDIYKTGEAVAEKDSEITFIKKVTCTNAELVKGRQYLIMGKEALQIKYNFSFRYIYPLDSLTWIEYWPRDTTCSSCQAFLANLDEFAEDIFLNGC
T1 sequence (P01031 19-1676): as above

| Structure (SMILES) | IC50 (purified human C5; [4]) | Kd (Human C5 [1]; [5]) | IC50 (Human C5 [2]) | solubility kinetic [3] | Kd (Human C5 [1]; [6]) | IC50 (purified human C5; [7]) |
| --- | --- | --- | --- | --- | --- | --- |
| COc1ccc(NC(=O)NC(CO)c2cccc(CNCCN3CCOCC3)c2)cc1OCCCC(C)C (stereo not shown) [Compound C5INH-0379] | 3630 nM | 499 nM | – | – | – | – |
| COc1cc(CCN2CCS(=O)(=O)CC2)ccc1CN1C(=O)N(c2ccc(OC)c(OCCCC3CC3)c2)CC[C@@H]1C [SC0162] | – | – | 2.8 nM | < 10 µM | – | – |
| COc1ccc(NC(=O)NCc2cccc3c2ccn3Cc2ccncc2)cc1OCCCC(C)C [Compound C5INH-0518] | 300 nM | 14 nM | – | – | < 20 nM | – |
| COc1ccc(NC(=O)NCc2ccnc3c2ccn3C)cc1OCCCC(C)C [Compound C5INH-0361] | 2350 nM | 52 nM | – | – | – | – |
| COc1ccc(NC(=O)NCc2ccnc(OCCN(C)C)c2)cc1OCCCC(C)C [Compound C5INH-0383] | 293 nM | 102 nM | – | – | – | – |
| COc1ccc(NC(=O)N2CCCC2c2ccc(N(C)C)cc2)cc1OCCCC(C)C (stereo not shown) [Compound C5INH-0396] | 2330 nM | 1400 nM | – | – | – | – |
| COc1ccc(NC(=O)NCc2cccc(OCCN(C)C)c2)cc1OCCCC(C)C [Compound C5INH-0462] | 113 nM | 95 nM | – | – | – | – |
| COc1ccc(NC(=O)NC(CO)c2cccc3[nH]ccc23)cc1OCCCC(C)C (stereo not shown) [Compound C5INH-0356] | 111 nM | 59 nM | – | – | – | – |
| COc1ccc(NC(=O)NC(CO)c2cc(N)ccc2OC)cc1OCCCC(C)C (stereo not shown) [Compound C5INH-0488] | 12 nM | 100 nM | – | – | – | < 20 nM |
| COc1ccc(NC(=O)NCc2ccc(OCCN(C)C)cc2)cc1OCCCC(C)C [Compound C5INH-0318] | 251 nM | 313 nM | – | – | – | – |
| COc1cc(CC(N)=O)c(NC(=O)N[C@@H](CO)c2ccccc2)cc1OCCCC(C)C [Compound C5INH-0422] | 1370 nM | 1340 nM | – | – | – | – |
| COCCOCCOc1cc(CNC(=O)Nc2ccc(OC)c(OCCCC(C)C)c2)ccn1 [Compound C5INH-0384] | 2180 nM | 810 nM | – | – | – | – |
| COc1ccc(NC(=O)N[C@H](CO)c2ccccc2)cc1C(F)C(F)CCC(C)C (stereo partly shown) [Compound C5INH-0406] | 683 nM | 760 nM | – | – | – | – |
| COc1ccc(NC(=O)N[C@@H](CO)c2ccccc2)cc1OCCC1CCCCC1 [Compound C5INH-0350] | 653 nM | 160 nM | – | – | – | – |
| COc1ccc(NC(=O)NCc2cccc3c2ccn3CC(=O)N(C)C)cc1OCCCC(C)C [Compound C5INH-0516] | 127 nM | 16 nM | – | – | < 20 nM | – |
| COc1ccc(NC(=O)NCc2ccnc3c2ccn3CCCN)cc1OCCCC(C)C [Compound C5INH-0544] | 130 nM | 210 nM | – | – | – | – |
| COc1ccc(NC(=O)NCc2ccnc(N3CCCC(O)C3)c2)cc1OCCCC(C)C (stereo not shown) [Compound C5INH-0403] | 2990 nM | 220 nM | – | – | – | – |
| COCc1cccc(CNC(=O)Nc2ccc(OC)c(OCCCC(C)C)c2)c1 [Compound C5INH-0502] | 3090 nM | 1910 nM | – | – | – | – |
| COc1cc(CCCCN(C)C)c(NC(=O)N[C@@H](CO)c2ccccc2OC)cc1OCCCC(C)C [Compound C5INH-0539] | 617 nM | 430 nM | – | – | – | – |
| COc1ccc(NC(=O)NCc2cccc3c2ccn3CCCN(C)C)cc1OCCCC(C)C [Compound C5INH-0524] | 65 nM | 27 nM | – | – | – | – |
| CNc1cccc(CNC(=O)Nc2ccc(OC)c(OCCCC(C)C)c2)c1 [Compound C5INH-0497] | 913 nM | 1400 nM | – | – | – | – |
| COc1cnccc1CNC(=O)Nc1ccc(OC)c(OCCCC(C)C)c1 [Compound C5INH-0401] | 136 nM | 48 nM | – | – | – | – |
| COc1cc(CC(=O)O)c(NC(=O)N[C@H](CO)c2ccccc2)cc1OCCCC(C)C [Compound C5INH-0355] | 2930 nM | 441 nM | – | – | – | – |
| COc1ccc(NC(=O)NC(CO)c2cc(F)ccc2O)cc1OCCCC(C)C (stereo not shown) [Compound C5INH-0315] | 13.7 nM | 50 nM | – | – | – | < 20 nM |
| CCCCCOc1cc(N2CC[C@H](C)N(Cc3ccnc4c3c(Cl)cn4CC(=O)N3CCO[C@H](COC)C3)C2=O)ccc1OC [SC0127] | – | – | 1.7 nM | < 10 µM | – | – |

| Structure (SMILES) | IC50 (purified human C5; [4]) | Kd (Human C5 [1]; [5]) | IC50 (Human C5 [2]) | solubility kinetic [3] | Kd (Human C5 [1]; [6]) | IC50 (purified human C5; [7]) |
| --- | --- | --- | --- | --- | --- | --- |
| COc1ccc(NC(=O)NCc2cccc(O)c2O)cc1OCCCC(C)C [Compound C5INH-0476] | 8.5 nM | 40 nM | – | – | – | < 20 nM |
| COc1ccc(NC(=O)NCc2cccc3c2ccn3CC2CCCN2C)cc1OCCCC(C)C (stereo not shown) [Compound C5INH-0519] | 96.7 nM | 9.3 nM | – | – | < 20 nM | – |
| COc1ccc(NC(=O)NCc2cccc(F)c2O)cc1OCCCC(C)C [Compound C5INH-0472] | 16 nM | 82 nM | – | – | – | < 20 nM |
| COc1ccc(NC(=O)NCc2ccnc(NCCN3CCOCC3)c2OC)cc1OCCCC(C)C [Compound C5INH-0452] | 95.5 nM | 59 nM | – | – | – | – |
| COc1ccc(NC(=O)NC(CO)c2ccc3[nH]ccc3c2)cc1OCCCC(C)C (stereo not shown) [Compound C5INH-0353] | 328 nM | 580 nM | – | – | – | – |
| COc1ccc(NCCCN2CCOCC2)cc1CNC(=O)Nc1ccc(OC)c(OCCCC(C)C)c1 [Compound C5INH-0534] | 1110 nM | 260 nM | – | – | – | – |
| COC(=O)c1cc(OC)c(OCCCC(C)C)cc1NC(=O)N[C@@H](CO)c1ccccc1 [Compound C5INH-0397] | 1380 nM | 2060 nM | – | – | – | – |
| COc1ccc(NC(=O)NCc2ccc(CN3CCOCC3)cc2)cc1OCCCC(C)C [Compound C5INH-0421] | 4590 nM | 1660 nM | – | – | – | – |
| COc1ccc(CNC(=O)Nc2ccc(OC)c(OCCCC(C)C)c2)c(O)c1 [Compound C5INH-0485] | 46.9 nM | 330 nM | – | – | – | – |
| CCS(=O)(=O)NCCn1ccc2c(CNC(=O)Nc3ccc(OC)c(OCCCC(C)C)c3)ccnc21 [Compound C5INH-0410] | 568 nM | 840 nM | – | – | – | – |
| CCOc1ccccc1CNC(=O)Nc1ccc(OC)c(OCCCC(C)C)c1 [Compound C5INH-0339] | 878 nM | 52 nM | – | – | – | – |
| COc1ccc(NC(=O)NCc2cccc(OC)c2O)cc1OCCCC(C)C [Compound C5INH-0456] | – | 29 nM | – | – | – | 7 nM |
| COc1ccc(NC(=O)NCc2ccc(N(C)CC(N)=O)cc2)cc1OCCCC(C)C [Compound C5INH-0446] | 2710 nM | 184 nM | – | – | – | – |
| COc1ccc(NC(=O)NCc2ccnc3c2ccn3CC2=NCCCN2)cc1OCCCC(C)C [Compound C5INH-0474] | 120 nM | 201 nM | – | – | – | – |
| COc1ccc(OC)c(CNC(=O)Nc2ccc(OC)c(OCCCC(C)C)c2)c1 [Compound C5INH-0296] | 680 nM | 20 nM | – | – | – | – |
| COCCOc1ccccc1CNC(=O)Nc1ccc(OC)c(OCCCC(C)C)c1 [Compound C5INH-0335] | 2090 nM | 180 nM | – | – | – | – |
| COc1ccc(NC(=O)NCc2ccnc3c2ccn3CC(=O)N(C)C)cc1OCCCC(C)C [Compound C5INH-0538] | 62.1 nM | 79 nM | – | – | – | – |
| COc1ccc(NC(=O)NCc2ccc3c(c2)OCO3)cc1OCCCC(C)C [Compound C5INH-0330] | 2660 nM | 2900 nM | – | – | – | – |
| COc1ccc(CNC(=O)Nc2ccc(OC)c(OCCCC(C)C)c2)c(OC)c1 [Compound C5INH-0348] | 72.5 nM | 10.2 nM | – | – | < 20 nM | – |
| COc1ccc(NC(=O)NCc2ccnc3c2ccn3CCCN2CCCC2)cc1OCCCC(C)C [Compound C5INH-0490] | 144 nM | 278 nM | – | – | – | – |
| CCCCCOc1cc(N2CC(C(N)=O)CN(Cc3ccc(CC(=O)N(C)C)cc3OC)C2=O)ccc1OC (stereo not shown) [SC0204] | – | – | 10.9 nM | 465 µM (≈ 251 µg/mL) | – | – |
| COc1cc(CC(=O)N2CCN(C)CC2)ccc1CN1C(=O)N(c2ccc(OC)c(OCCCC3CC3)c2)CC[C@@H]1C [SC0137] | – | – | 1.8 nM | 275 µM (≈ 159 µg/mL) | – | – |
| COc1cc(CC(=O)N2CCNC(=O)C2)ccc1CN1CC(C)CN(c2ccc(OC)c(OCCCC3CC3)c2)C1=O (stereo not shown) [SC0158] | – | – | 2.7 nM | 16 µM (≈ 9.26 µg/mL) | – | – |
| CCCCCOc1cc(N2CC[C@@H](C)N(Cc3cccc4[nH]cc(Cl)c34)C2=O)ccc1OC [SC0167] | – | – | 3.2 nM | < 10 µM | – | – |
